Results: US8134007B2, “Pyridine derivatives” (Pfizer Inc., priority 2007, dated 2012)
Read-outs that look alike come from different tables or passages of the source.

How the values were obtained:
Assay type in all cases: cell-based
[1] = tested on: tetrodotoxin-sensitive voltage-gated sodium channels including NaV1.2, NaV1.3 and NaV1.7; test: TTX-S Assay (VIPR, SHSY-5Y cell line, veratridine opener)
Human Nav1.5 = target: T1, Human Nav1.5 (Homo sapiens, UniProt Q14524); test: Nav1.5 Assay (VIPR, HEK293 cells); details: HEK293 cells expressing Human Nav1.5; average of replicates; read-out: Nav1.5 IC50
T1 construct: expressed in transfected cells; host or cells: HEK293
T1 sequence (Q14524 whole entry): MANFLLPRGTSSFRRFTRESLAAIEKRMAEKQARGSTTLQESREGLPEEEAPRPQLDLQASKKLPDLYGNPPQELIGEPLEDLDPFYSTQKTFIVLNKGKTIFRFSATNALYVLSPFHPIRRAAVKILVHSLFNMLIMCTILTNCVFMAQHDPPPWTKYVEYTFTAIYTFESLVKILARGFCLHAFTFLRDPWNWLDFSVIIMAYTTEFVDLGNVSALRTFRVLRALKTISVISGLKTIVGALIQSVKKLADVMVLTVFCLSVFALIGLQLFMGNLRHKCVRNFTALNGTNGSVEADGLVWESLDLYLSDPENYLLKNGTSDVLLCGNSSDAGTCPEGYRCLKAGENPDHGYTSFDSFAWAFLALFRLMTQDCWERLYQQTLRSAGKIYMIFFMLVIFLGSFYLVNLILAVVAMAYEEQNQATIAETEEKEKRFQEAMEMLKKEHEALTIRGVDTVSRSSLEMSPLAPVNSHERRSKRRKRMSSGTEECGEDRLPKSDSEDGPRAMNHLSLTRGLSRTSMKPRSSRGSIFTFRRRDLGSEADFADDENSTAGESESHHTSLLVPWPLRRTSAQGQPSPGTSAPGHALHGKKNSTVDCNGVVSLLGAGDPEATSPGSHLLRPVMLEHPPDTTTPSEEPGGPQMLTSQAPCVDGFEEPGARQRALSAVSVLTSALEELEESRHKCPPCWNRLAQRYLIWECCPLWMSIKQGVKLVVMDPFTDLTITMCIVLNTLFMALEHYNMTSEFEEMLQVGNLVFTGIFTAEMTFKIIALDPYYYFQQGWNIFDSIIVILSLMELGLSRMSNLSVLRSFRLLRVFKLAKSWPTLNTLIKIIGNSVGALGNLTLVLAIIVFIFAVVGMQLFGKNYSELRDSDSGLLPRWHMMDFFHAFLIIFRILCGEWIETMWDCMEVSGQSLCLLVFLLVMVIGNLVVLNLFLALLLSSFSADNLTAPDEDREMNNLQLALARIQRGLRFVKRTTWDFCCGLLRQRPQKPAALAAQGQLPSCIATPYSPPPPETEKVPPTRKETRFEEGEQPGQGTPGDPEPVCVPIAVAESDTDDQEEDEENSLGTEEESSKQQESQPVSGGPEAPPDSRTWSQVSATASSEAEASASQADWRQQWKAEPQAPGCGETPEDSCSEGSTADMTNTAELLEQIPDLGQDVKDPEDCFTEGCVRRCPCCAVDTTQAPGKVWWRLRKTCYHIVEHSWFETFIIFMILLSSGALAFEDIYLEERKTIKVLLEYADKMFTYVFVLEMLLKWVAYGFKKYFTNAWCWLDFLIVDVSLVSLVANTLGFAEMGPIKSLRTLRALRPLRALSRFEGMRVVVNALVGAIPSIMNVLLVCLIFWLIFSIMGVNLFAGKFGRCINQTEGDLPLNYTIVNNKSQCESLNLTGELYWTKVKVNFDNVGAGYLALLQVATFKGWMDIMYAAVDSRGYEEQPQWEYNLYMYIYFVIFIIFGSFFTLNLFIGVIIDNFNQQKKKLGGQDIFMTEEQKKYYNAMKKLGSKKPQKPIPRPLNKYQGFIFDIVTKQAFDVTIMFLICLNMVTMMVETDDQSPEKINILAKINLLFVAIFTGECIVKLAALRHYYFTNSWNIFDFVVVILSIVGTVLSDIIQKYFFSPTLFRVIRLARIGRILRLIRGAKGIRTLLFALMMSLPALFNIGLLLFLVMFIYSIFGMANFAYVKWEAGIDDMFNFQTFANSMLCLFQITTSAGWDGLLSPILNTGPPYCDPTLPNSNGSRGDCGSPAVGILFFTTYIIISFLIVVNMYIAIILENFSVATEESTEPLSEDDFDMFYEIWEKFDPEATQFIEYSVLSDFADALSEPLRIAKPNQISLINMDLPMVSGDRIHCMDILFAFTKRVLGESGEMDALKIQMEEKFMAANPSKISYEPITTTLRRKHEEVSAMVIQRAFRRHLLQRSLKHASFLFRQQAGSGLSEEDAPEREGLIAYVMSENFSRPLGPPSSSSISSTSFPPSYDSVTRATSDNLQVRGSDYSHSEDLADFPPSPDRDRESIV
Description: The Nav1.5 assay is performed in HEK293 cells expressing Human Nav1.5 in the same way as the Nav1.8 assay.
Where replicate experiments were conducted resulting in multiple sets of data for a test compound, the data presented represent the average value from all replicate experiments.

Human Nav1.8 = target: T2, Human Nav1.8 (Homo sapiens, UniProt Q9Y5Y9); test: VIPR Assay for Nav1.8 Compounds (FRET membrane potential, deltamethrin opener); details: VIPR FRET membrane potential assay, deltamethrin opener; average of replicates; read-out: Nav1.8 IC50
T2 construct: expressed in transfected cells; host or cells: HEK293
T2 sequence (Q9Y5Y9 whole entry): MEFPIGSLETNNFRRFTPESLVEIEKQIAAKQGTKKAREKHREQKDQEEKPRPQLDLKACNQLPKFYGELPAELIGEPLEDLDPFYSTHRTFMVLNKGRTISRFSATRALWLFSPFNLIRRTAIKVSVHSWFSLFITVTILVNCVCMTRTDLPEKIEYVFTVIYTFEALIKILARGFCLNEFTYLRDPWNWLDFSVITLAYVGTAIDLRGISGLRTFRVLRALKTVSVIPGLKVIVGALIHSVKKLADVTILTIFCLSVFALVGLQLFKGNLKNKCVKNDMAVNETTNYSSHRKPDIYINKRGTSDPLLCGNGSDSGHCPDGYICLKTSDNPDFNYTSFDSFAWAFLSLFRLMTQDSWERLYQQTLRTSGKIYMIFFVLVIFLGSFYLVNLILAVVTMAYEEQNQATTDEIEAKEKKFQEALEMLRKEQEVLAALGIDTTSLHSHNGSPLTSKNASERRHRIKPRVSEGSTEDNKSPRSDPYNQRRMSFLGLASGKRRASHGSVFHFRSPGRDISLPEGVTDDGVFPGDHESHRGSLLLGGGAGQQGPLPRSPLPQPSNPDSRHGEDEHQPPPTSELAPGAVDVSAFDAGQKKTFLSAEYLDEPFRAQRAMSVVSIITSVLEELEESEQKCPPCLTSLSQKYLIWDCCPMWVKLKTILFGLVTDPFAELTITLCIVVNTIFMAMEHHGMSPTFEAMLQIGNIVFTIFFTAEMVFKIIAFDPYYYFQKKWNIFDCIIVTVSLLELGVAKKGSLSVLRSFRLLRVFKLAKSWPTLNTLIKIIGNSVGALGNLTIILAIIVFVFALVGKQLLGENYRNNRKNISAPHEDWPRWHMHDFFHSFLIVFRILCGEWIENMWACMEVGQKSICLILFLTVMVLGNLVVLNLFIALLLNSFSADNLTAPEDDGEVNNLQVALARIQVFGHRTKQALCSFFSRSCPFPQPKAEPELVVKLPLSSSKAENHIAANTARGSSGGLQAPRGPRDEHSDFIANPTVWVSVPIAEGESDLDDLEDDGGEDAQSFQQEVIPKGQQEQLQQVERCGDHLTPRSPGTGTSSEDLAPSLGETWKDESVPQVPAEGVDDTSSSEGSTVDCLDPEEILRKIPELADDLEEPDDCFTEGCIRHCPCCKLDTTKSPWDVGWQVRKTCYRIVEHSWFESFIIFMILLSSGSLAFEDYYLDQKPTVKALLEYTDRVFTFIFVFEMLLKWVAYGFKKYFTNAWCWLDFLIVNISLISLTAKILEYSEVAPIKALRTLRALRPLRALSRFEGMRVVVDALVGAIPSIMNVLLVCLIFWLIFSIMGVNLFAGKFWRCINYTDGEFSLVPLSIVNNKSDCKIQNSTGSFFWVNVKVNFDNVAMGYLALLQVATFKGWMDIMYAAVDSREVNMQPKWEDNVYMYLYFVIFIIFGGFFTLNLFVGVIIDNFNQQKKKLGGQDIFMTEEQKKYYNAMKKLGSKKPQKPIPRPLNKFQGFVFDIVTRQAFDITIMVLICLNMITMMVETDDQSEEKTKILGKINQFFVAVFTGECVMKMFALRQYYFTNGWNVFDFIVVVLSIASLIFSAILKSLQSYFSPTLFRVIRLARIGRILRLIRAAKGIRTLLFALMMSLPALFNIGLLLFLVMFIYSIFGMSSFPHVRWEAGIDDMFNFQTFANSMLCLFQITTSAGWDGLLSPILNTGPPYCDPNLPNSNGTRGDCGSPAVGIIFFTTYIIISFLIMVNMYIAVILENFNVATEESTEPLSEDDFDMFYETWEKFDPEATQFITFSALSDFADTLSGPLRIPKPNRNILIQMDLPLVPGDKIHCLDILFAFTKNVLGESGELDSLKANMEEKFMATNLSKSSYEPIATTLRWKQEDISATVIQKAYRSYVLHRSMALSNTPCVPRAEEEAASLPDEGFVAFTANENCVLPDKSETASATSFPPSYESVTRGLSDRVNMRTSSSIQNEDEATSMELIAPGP

[2] = read-out: TTX-S IC50, veratridine 50 μM opener, average of replicates

COc1cc(Cl)c(Cl)c(-c2ccc(NC(=O)c3conc3C)nc2N)c1 [Example 29, N-[6-Amino-5-(2,3-dichloro-5-methoxyphenyl)pyridin-2-yl]-3-methylisoxazole-4-carboxamide]
IC50 [1, 2]: 8.2 µM
IC50 (Human Nav1.5): 6.4 µM
IC50 (Human Nav1.8): 0.55 µM

COc1cc(Cl)cc(-c2ccc(NC(=O)c3ccnn3C)nc2N)c1Cl [Example 8, N-[6-Amino-5-(2,5-dichloro-3-methoxyphenyl)pyridin-2-yl]-1-methyl-1H-pyrazole-5-carboxamide]
IC50 [1, 2]: 7.6 µM
IC50 (Human Nav1.5): 20 µM
IC50 (Human Nav1.8): 1.6 µM

Cc1nocc1C(=O)Nc1ccc(-c2ccccc2OC(F)(F)F)c(N)n1 [Example 43, N-{6-Amino-5-[2-(trifluoromethoxy)phenyl]pyridin-2-yl}-3-methylisoxazole-4-carboxamide]
IC50 [1, 2]: 10 µM
IC50 (Human Nav1.5): 12 µM
IC50 (Human Nav1.8): 0.32 µM

Cn1nccc1C(=O)Nc1ccc(-c2cc(F)ccc2OC(F)(F)F)c(N)n1 [Example 116]
IC50 [1, 2]: 26 µM
IC50 (Human Nav1.5): 28 µM
IC50 (Human Nav1.8): 2.3 µM

COc1cc(Cl)c(Cl)c(-c2ccc(NC(=O)c3ccnn3C)nc2N)c1 [Example 7, N-[6-Amino-5-(2,3-dichloro-5-methoxyphenyl)pyridin-2-yl]-1-methyl-1H-pyrazole-5-carboxamide]
IC50 [1, 2]: 9.2 µM
IC50 (Human Nav1.5): 6.3 µM
IC50 (Human Nav1.8): 0.63 µM

Cn1ccc(C(=O)Nc2ccc(-c3cc(Cl)cc(Cl)c3Cl)c(N)n2)n1 [Example 70, N-[6-Amino-5-(2,3,5-trichlorophenyl)pyridin-2-yl]-1-methyl-1H-pyrazole-3-carboxamide]
IC50 [1, 2]: 14 µM
IC50 (Human Nav1.5): 28 µM
IC50 (Human Nav1.8): 11 µM

COc1ccc(Cl)c(-c2ccc(NC(=O)c3conc3C)nc2N)c1 [Example 24, N-[6-Amino-5-(2-chloro-5-methoxyphenyl)pyridin-2-yl]-3-methylisoxazole-4-carboxamide]
IC50 [1, 2]: 11 µM
IC50 (Human Nav1.5): 8.5 µM
IC50 (Human Nav1.8): 0.44 µM

CCn1nccc1C(=O)Nc1ccc(-c2cccc(F)c2Cl)c(N)n1 [Example 58, N-[6-Amino-5-(2-chloro-3-fluorophenyl)pyridin-2-yl]-1-ethyl-1H-pyrazole-5-carboxamide]
IC50 [1, 2]: 17 µM
IC50 (Human Nav1.5): 31 µM
IC50 (Human Nav1.8): 9.3 µM

CCn1nccc1C(=O)Nc1ccc(-c2cc(OC(F)(F)F)ccc2Cl)c(N)n1 [Example 65, N-{6-Amino-5-[2-chloro-5-(trifluoromethoxy)phenyl]pyridin-2-yl}-1-ethyl-1H-pyrazole-5-carboxamide]
IC50 [1, 2]: 3.2 µM
IC50 (Human Nav1.5): 12 µM
IC50 (Human Nav1.8): 5.3 µM

Cn1nccc1C(=O)Nc1ccc(-c2ccc(OC(F)(F)F)c(F)c2)c(N)n1 [Example 121]
IC50 [1, 2]: 3.2 µM
IC50 (Human Nav1.5): 8.6 µM
IC50 (Human Nav1.8): 10 µM

Cn1nncc1C(=O)Nc1ccc(-c2cc(F)ccc2Cl)c(N)n1 [Example 86, N-[6-Amino-5-(2-chloro-5-fluorophenyl)pyridin-2-yl]-1-methyl-1H-1,2,3-triazole-5-carboxamide]
IC50 [1, 2]: 19 µM
IC50 (Human Nav1.5): 7.5 µM
IC50 (Human Nav1.8): 5.3 µM

Cn1nccc1C(=O)Nc1ccc(-c2ccc(OCC(F)(F)F)cc2)c(N)n1 [Example 122]
IC50 [1, 2]: 12 µM
IC50 (Human Nav1.5): 14 µM
IC50 (Human Nav1.8): 19 µM

COc1ccc(Cl)c(-c2ccc(NC(=O)c3conc3C(F)(F)F)nc2N)c1 [Example 113]
IC50 [1, 2]: 8.7 µM
IC50 (Human Nav1.5): 14 µM
IC50 (Human Nav1.8): 3.8 µM

COc1cc(Cl)cc(-c2ccc(NC(=O)c3cnnn3C)nc2N)c1Cl [Example 87, N-[6-Amino-5-(2,5-dichloro-3-methoxyphenyl)pyridin-2-yl]-1-methyl-1H-1,2,3-triazole-5-carboxamide]
IC50 [1, 2]: 15 µM
IC50 (Human Nav1.5): 9.9 µM
IC50 (Human Nav1.8): 6.1 µM

CC(C)n1nccc1C(=O)Nc1ccc(-c2cc(OC(F)(F)F)ccc2Cl)c(N)n1 [Example 69, N-{6-Amino-5-[2-chloro-5-(trifluoromethoxy)phenyl]pyridin-2-yl}-1-isopropyl-1H-pyrazole-5-carboxamide]
IC50 [1, 2]: 3.6 µM
IC50 (Human Nav1.5): 16 µM
IC50 (Human Nav1.8): 16 µM

Cc1nocc1C(=O)Nc1ccc(-c2cc(F)ccc2C(F)(F)F)c(N)n1 [Example 39, N-{6-Amino-5-[5-fluoro-2-(trifluoromethyl)phenyl]pyridin-2-yl}-3-methylisoxazole-4-carboxamide]
IC50 [1, 2]: 13 µM
IC50 (Human Nav1.5): 21 µM
IC50 (Human Nav1.8): 0.93 µM

Cc1nocc1C(=O)Nc1ccc(-c2cc(Cl)cc3c2OCCO3)c(N)n1 [Example 30, N-[6-Amino-5-(7-chloro-2,3-dihydro-1,4-benzodioxin-5-yl)pyridin-2-yl]-3-methylisoxazole-4-carboxamide]
IC50 [1, 2]: 28 µM
IC50 (Human Nav1.5): 16 µM
IC50 (Human Nav1.8): 1.3 µM

CCn1nccc1C(=O)Nc1ccc(-c2cc(F)ccc2C(F)(F)F)c(N)n1 [Example 57, N-{6-Amino-5-[5-fluoro-2-(trifluoromethyl)phenyl]pyridin-2-yl}-1-ethyl-1H-pyrazole-5-carboxamide]
IC50 [1, 2]: 21 µM
IC50 (Human Nav1.5): > 32 µM
IC50 (Human Nav1.8): 3.7 µM

Nc1nc(NC(=O)c2ccno2)ccc1-c1cc(Cl)cc(Cl)c1Cl [Example 78, N-[6-Amino-5-(2,3,5-trichlorophenyl)pyridin-2-yl]isoxazole-5-carboxamide]
IC50 [1, 2]: 8.3 µM
IC50 (Human Nav1.5): 14 µM
IC50 (Human Nav1.8): 1.4 µM

Cc1nocc1C(=O)Nc1ccc(-c2ccccc2OC(F)F)c(N)n1 [Example 38, N-{6-Amino-5-[2-(difluoromethoxy)phenyl]pyridin-2-yl}-3-methylisoxazole-4-carboxamide]
IC50 [1, 2]: 26 µM
IC50 (Human Nav1.5): 25 µM
IC50 (Human Nav1.8): 2.6 µM

Cc1nocc1C(=O)Nc1ccc(-c2cc(F)ccc2OC(F)(F)F)c(N)n1 [Example 115]
IC50 [1, 2]: 5.3 µM
IC50 (Human Nav1.5): 7.9 µM
IC50 (Human Nav1.8): 0.28 µM

Cn1nccc1C(=O)Nc1ccc(-c2ccccc2OC(F)(F)F)c(N)n1 [Example 11, N-{6-Amino-5-[2-(trifluoromethoxy)pheny]pyridin-2-yl}-1-methyl-1H-pyrazole-5-carboxamide]
IC50 ([1]; veratridine 50 μM opener, average of replicates, read-out: TTX-S IC50): 11 µM
IC50 (Human Nav1.5): 18 µM
IC50 (Human Nav1.8): 2.4 µM

Cc1n[nH]cc1C(=O)Nc1ccc(-c2ccccc2OC(F)(F)F)c(N)n1 [Example 108, N-{6-Amino-5-[2-(trifluoromethoxy)phenyl]pyridin-2-yl}-3-methyl-1H-pyrazole-4-carboxamide]
IC50 [1, 2]: 27 µM
IC50 (Human Nav1.5): > 32 µM
IC50 (Human Nav1.8): 26 µM

COc1ccc(Cl)c(-c2ccc(NC(=O)c3ccnn3C)nc2N)c1 [Example 5, N-[6-Amino-5-(2-chloro-5-methoxyphenyl)pyridin-2-yl]-1-methyl-1H-pyrazole-5-carboxamide]
IC50 [1, 2]: > 32 µM
IC50 (Human Nav1.5): > 32 µM
IC50 (Human Nav1.8): 0.9 µM

CCn1nccc1C(=O)Nc1ccc(-c2cc(Cl)ccc2OC(F)(F)F)c(N)n1 [Example 63, N-{6-Amino-5-[5-chloro-2-(trifluoromethoxy)phenyl]pyridin-2-yl}-1-ethyl-1H-pyrazole-5-carboxamide]
IC50 [1, 2]: 4.4 µM
IC50 (Human Nav1.5): 16 µM
IC50 (Human Nav1.8): 4.3 µM

CC(C)n1nccc1C(=O)Nc1ccc(-c2cc(F)ccc2Cl)c(N)n1 [Example 67, N-[6-Amino-5-(2-chloro-5-fluorophenyl)pyridin-2-yl]-1-isopropyl-1H-pyrazole-5-carboxamide]
IC50 [1, 2]: 22 µM
IC50 (Human Nav1.5): 31 µM
IC50 (Human Nav1.8): 5 µM

Cc1nocc1C(=O)Nc1ccc(-c2ccccc2C(F)F)c(N)n1 [Example 42, N-[6-Amino-5-[2-(difluoromethyl)phenyl]pyridin-2-yl]-3-methylisoxazole-4-carboxamide]
IC50 [1, 2]: 22 µM
IC50 (Human Nav1.5): > 32 µM
IC50 (Human Nav1.8): 2.5 µM

COCc1nocc1C(=O)Nc1ccc(-c2ccccc2OC(F)(F)F)c(N)n1 [Example 88, N-{6-Amino-5-[2-(trifluoromethoxy)phenyl]pyridin-2-yl}-3-(methoxymethyl)isoxazole-4-carboxamide]
IC50 [1, 2]: 7.3 µM
IC50 (Human Nav1.5): 9.8 µM
IC50 (Human Nav1.8): 1.5 µM

Cn1nccc1C(=O)Nc1ccc(-c2ccc(Cl)cc2Cl)c(N)n1 [Example 15, N-[6-Amino-5-(2,4-dichlorophenyl)pyridin-2-yl]-1-methyl-1H-pyrazole-5-carboxamide]
IC50 [1, 2]: 21 µM
IC50 (Human Nav1.5): 13 µM
IC50 (Human Nav1.8): 10 µM

Cc1nocc1C(=O)Nc1ccc(-c2cc(F)ccc2F)c(N)n1 [Example 34, N-[6-Amino-5-(2,5-difluorophenyl)pyridin-2-yl]-3-methylisoxazole-4-carboxamide]
IC50 [1, 2]: 19 µM
IC50 (Human Nav1.5): 16 µM
IC50 (Human Nav1.8): 3.1 µM

CCn1nccc1C(=O)Nc1ccc(-c2cc(F)ccc2Cl)c(N)n1 [Example 54, N-[6-Amino-5-(2-chloro-5-fluorophenyl)pyridin-2-yl]-1-ethyl-1H-pyrazole-5-carboxamide]
IC50 [1, 2]: 18 µM
IC50 (Human Nav1.5): 20 µM
IC50 (Human Nav1.8): 1.2 µM

Cn1nncc1C(=O)Nc1ccc(-c2ccccc2Cl)c(N)n1 [Example 82, N-[6-Amino-5-(2-chlorophenyl)pyridin-2-yl]-1-methyl-1H-1,2,3-triazole-5-carboxamide]
IC50 [1, 2]: > 32 µM
IC50 (Human Nav1.5): > 32 µM
IC50 (Human Nav1.8): 9.3 µM

Cn1nccc1C(=O)Nc1ccc(-c2cc(F)ccc2C(F)(F)F)c(N)n1 [Example 12, N-{6-Amino-5-[5-fluoro-2-(trifluoromethyl)phenyl]pyridin-2-yl}-1-methyl-1H-pyrazole-5-carboxamide]
IC50 [1, 2]: > 32 µM
IC50 (Human Nav1.5): > 32 µM
IC50 (Human Nav1.8): 3 µM

Cc1nocc1C(=O)Nc1ccc(-c2ccccc2Cl)c(N)n1 [Example 26, N-[6-Amino-5-(2-chlorophenyl)pyridin-2-yl]-3-methylisoxazole-4-carboxamide]
IC50 [1, 2]: 8.5 µM
IC50 (Human Nav1.5): 11 µM
IC50 (Human Nav1.8): 0.56 µM
